Results as given in patent publication US12589071B2, “Suckable and/or melt-in-mouth tablet based on hyaluronic acid and chondroitin sulphate and salts thereof” (SOFAR SWISS SA, priority 2017, dated 2026).

System: patients with a first diagnosis of GERD with extraesophageal (upper) symptoms
Experiment: Randomised open-label clinical study, Experimental Part (II): RSI (Reflux Symptom Index) questionnaire
Format: in vivo, human
Source text: The aim of the present study was to assess, in patients who, at the first diagnosis, presented with extraesophageal symptoms associated with gastroesophageal reflux disease (GERD), the effect of a 6-week treatment with the composition C1 comprising a chondroitin sulphate, a hyaluronic acid or a salt thereof and an aluminium hydroxide, in combination with a treatment with proton pump inhibitors (PPI) versus treatment with PPIs alone; i.e. to verify the reduction in the frequency of symptoms in patients by means of the Likert questionnaire, and the severity of upper symptoms, by means of the RSI (Reflux Symptom Index) questionnaire, and to assess Responders and Non-Responders in the two groups of patients after 6 weeks of treatment versus the baseline.
The multi-centre prospective, randomised, open-label clinical study, with two parallel arms of treatment, followed by the FU period, provided for the treatment, for 6 weeks, of 78 patients diagnosed for the first time, who presented with upper symptoms ascribable to a diagnosis of GERD, in the presence/absence of typical symptoms. The patients were thus randomly assigned, on an open-label basis, in a 1:1 ratio: • 39 patients were treated with C1+PPIs (omeprazole) for 6 weeks; and • 39 patients were treated only with a PPI (omeprazole) for 6 weeks. […]
On these occasions patients filled out the RSI questionnaire, for the assessment of the severity of symptoms, and the Likert scale, for the assessment of the reduction in the frequency of symptoms. […] In this period, only the use of omeprazole (PPI), at a constant dosage, was allowed, according to the indications of the investigator, both to the patients included in the untreated group and in the treatment group, as a rescue medication to control symptoms and safety data were assessed. […]

SMILES: COc1ccc2[nH]c([S+]([O-])Cc3ncc(C)c(OC)c3C)nc2c1 (stereo not drawn) [PPI, omeprazole]
- MEAN of DELTA RSI per treatment group (V4 (6 weeks) versus baseline V1, N 28 (C1 + PPI), N 36 (PPI)): −13.69
- DELTA (RSI V4 versus RSI V1, individual subject) (after 6 weeks of treatment versus baseline, one line per subject, preliminary, listed as IPPI): −11
- RSI V4 (individual subject score) (examination V4 after 6 weeks of treatment, one line per subject, preliminary, listed as IPPI): 13
